We go through three molecules from patent publication US7696362B2, “Derivatives of artemisinin, and their uses in the treatment of malaria” (Centre National de la Recherche Scientifique, priority 2001, dated 2010).

Data set [1] can be described thus: Solubility in water. It counts as physicochemical. The note with it: hydrochloride.
The subject of data set [2] is sensitive strains of P. falciparum. As to the kind of experiment: IC50 vis-à-vis sensitive strains of P. falciparum. In kind it is cell-based. Particulars: Plasmodium falciparum.
The test system of data set [3] is resistant (W2) strains of P. falciparum. As to the kind of experiment: IC50 vis-à-vis resistant (W2) strains of P. falciparum. In kind it is cell-based. The note with it: Plasmodium falciparum.
Data set [4] has as its system Plasmodium berghei. As to the kind of experiment: Peters test on mice infected by Plasmodium berghei. It counts as in vivo. The note with it: after 20 days; daily dose of 50 mg/Kg for 4 days.

Some results are limits rather than exact numbers.

One may read the solubility as the dissolved amount per volume that the medium holds. Read a high solubility as a readily soluble substance. Turning to `C[C@@H]1CC[C@H]2C(CN3CCN(CCO)CC3)=C(C(F)(F)F)O[C@@H]3OC4(C)CC[C@@H]1[C@]32OO4` [drawing 28], in data set [1], the solubility was above 50 mg/mL. The same measure, in the same setting: under `C[C@@H]1CC[C@H]2C(CN3CCOCC3)=C(C(F)(F)F)O[C@@H]3OC4(C)CC[C@@H]1[C@]32OO4` stands above 20 mg/mL.

As usually defined, the IC50 is the concentration at which inhibition is half-maximal. A higher IC50 goes with weaker potency. For `C[C@@H]1CC[C@H]2C(CN3CCN(CCO)CC3)=C(C(F)(F)F)O[C@@H]3OC4(C)CC[C@@H]1[C@]32OO4`, the IC50 is 17 nM in data set [2] and 3 nM in data set [3]. In addition, the “survival of mice in the Peters test” value in data set [4] is given as “all the mice survive”.
